Values of other authors as cited in patent publication US20060253014A1 (priority 2003, published 2006).
Read-outs that look alike come from different tables or passages of the source.

Tested on: inbred mouse strains

Cc1c(C(=O)c2cccc3ccccc23)c2cccc3c2n1[C@H](CN1CCOCC1)CO3 [WIN 55, 212-2]
Resistant Stains (high AD50) (mouse, in vivo): AKR, C57BL/10, C58 | Sensitive Strains (low AD50) (mouse, in vivo): 129P3, A, DBA/2

Clc1ccc(C2CC3CCC2N3)cn1 (stereo not drawn) [Epibetadine, epibatidine]
Resistant Stains (high AD50) (mouse, in vivo): AKR, CBA, C57BL/10 | Sensitive Strains (low AD50) (mouse, in vivo): A, BALB/c

CN1CC[C@]23c4c5ccc(O)c4O[C@H]2[C@@H](O)C=C[C@H]3[C@H]1C5 [morphine]
Sensitive Strains (low AD50) (mouse, in vivo): 129P3, C3H/He, DBA/2

Clc1cccc(Cl)c1N=C1NCCN1 [Clonidine, clonidine]
Sensitive Strains (low AD50) (murine strains, AD50 = the half-maximal antinociceptive dose): 129P3, A, AKR,
